# Reference: publication PMC11671014 (PLOS Pathogens, 2024)
# Where two headings read alike, the source gives them in different places.
# Legend:
# [1] = test system: P. falciparum (strain 3D7A); parameters: method as in ref [1] Sanz et al., PloS one 2012; settings: 10 x IC50; ref [1] Sanz et al., PloS one 2012; cited from earlier work
# [2] = test system: P. falciparum Brazilian field isolates; experiment: Ex vivo drug susceptibility of Brazilian field isolates (P. falciparum); format: cell-based
# Description: (§1) Compounds were assayed on ten P. vivax isolates and seven P. falciparum Brazilian isolates collected from mono-infected patients, who had signed a written informed consent form to participate in the study, using previously described methods. The initial parasitemia ranged from 2,100–8,000 parasites/μL for P. vivax and 3,500–9,000 parasites/μL for P. falciparum isolates. Artesunate and chloroquine were assayed in parallel as standard compounds. The analyses included only the isolates that were incubated for ≥ 40 h with the compounds.
# [3] = test system: P. vivax Brazilian field isolates; experiment: Ex vivo drug susceptibility of Brazilian field isolates (P. vivax); format: cell-based
# Description: as §1
# [4] = test system: P. falciparum liver stage schizont (NF175); experiment: Liver stage schizont assay in primary human hepatocytes (NF175); format: cell-based; settings: Plasmodium falciparum, Hepatocyte, 96 h, four days
# Description: Activity against liver stage parasites was performed using a modification of published procedures. Briefly, cryopreserved human primary hepatocytes (NF175: H1500.H15B+ Lot No. HC0-6, TebuBio or NF135: F00995-P Lot No. IRZ, BioIVT) were thawed and seeded at 18,000 cells per well in collagen-coated 384-well microtiter plates in medium containing 10% heat inactivated fetal bovine serum (hiFBS). Cells were cultured at 37°C in 5% CO2. For NF175, medium was replaced by fresh medium containing 10% hiFBS, 5 h post plating. For NF135, medium was replaced by medium containing 0.2% BSA, 24 h post plating. 48 h post plating, salivary glands from Plasmodium-NF175 or NF135-infected Anopheles stephensi mosquitoes were dissected, added to the hepatocytes (10,000 per well/ NF175; or 12,500 per well/ NF135) and allowed to infect for 3 hours. Sporozoites were then aspirated, and compounds diluted in medium containing 10% hiFBS or 0.2% BSA, were added to the hepatocytes. Medium containing 10% hiFBS or 0.2% BSA and compounds was refreshed daily for four days. […] Cells were imaged on a PicoExpress high content imager, and images were analysed automatically using CellReporterXpress software. Data were analysed by logistic regression using a four-parameter (Hill equation) model and a least-squares method to find the best fit.
# Primary hepatocytes = experiment: Toxicity to primary hepatocyte host cells in the liver stage assay; format: cell-based, human; settings: Homo sapiens, Hepatocyte
# Description: (§2) Activity against liver stage parasites was performed using a modification of published procedures. Briefly, cryopreserved human primary hepatocytes (NF175: H1500.H15B+ Lot No. HC0-6, TebuBio or NF135: F00995-P Lot No. IRZ, BioIVT) were thawed and seeded at 18,000 cells per well in collagen-coated 384-well microtiter plates in medium containing 10% heat inactivated fetal bovine serum (hiFBS). Cells were cultured at 37°C in 5% CO2. For NF175, medium was replaced by fresh medium containing 10% hiFBS, 5 h post plating. For NF135, medium was replaced by medium containing 0.2% BSA, 24 h post plating. 48 h post plating, salivary glands from Plasmodium-NF175 or NF135-infected Anopheles stephensi mosquitoes were dissected, added to the hepatocytes (10,000 per well/ NF175; or 12,500 per well/ NF135) and allowed to infect for 3 hours. Sporozoites were then aspirated, and compounds diluted in medium containing 10% hiFBS or 0.2% BSA, were added to the hepatocytes. Medium containing 10% hiFBS or 0.2% BSA and compounds was refreshed daily for four days. Hepatocytes were fixed with ice-cold methanol and samples were blocked with 10% hiFBS in PBS. Schizonts were stained with rabbit anti-HSP70 in 10% hiFBS for 1–2 h followed by incubation with a mixture of secondary goat anti-rabbit AlexaFluor 594 antibody and 4′,6-diamidine-2′-phenylindole dihydrochloride (DAPI) in 10% hiFBS for 30 min. Samples were washed with PBS containing 0.05% Tween 20 between different steps. Cells were imaged on a PicoExpress high content imager, and images were analysed automatically using CellReporterXpress software. Data were analysed by logistic regression using a four-parameter (Hill equation) model and a least-squares method to find the best fit.
# [5] = test system: stage V NF54 strain male and female gametocytes; experiment: P. falciparum Dual Gamete Formation Assay (PfDGFA); format: cell-based; settings: Plasmodium falciparum, 48 h
# Description: Inhibition of the viability of stage V male and female gametocytes was assessed in the P. falciparum Dual Gamete Formation Assay (PfDGFA) as described previously. Briefly, mature stage V NF54 strain gametocytes were incubated with test molecules for 48 h in 384-well plates at 37°C. Gametogenesis was then triggered by cooling the plates to room temperature and addition of xanthurenic acid-containing activating medium (also containing anti-Pfs25 antibody (Mab 4B7) conjugated to a Cy3 fluorophore). Twenty minutes after activation, exflagellation was imaged in all wells of the plate using a x4 objective and automated brightfield microscopy. The plate was then incubated at 20°C for a further 24 h in the dark. Thereafter, female gamete formation was quantified by automated identification of Pfs25-positive cells. Automated counts were transformed to percent inhibition values with reference to positive 100 nM Cabamiquine (DDD498) and negative (DMSO) controls. Data represent the means of multiple independent biological repeats.
# [6] = test system: P. falciparum (3D7, ring stage) cultures; experiment: P. falciparum 3D7 72-h growth inhibition, lactate dehydrogenase (PfLDH) assay; format: cell-based; settings: Plasmodium falciparum, 72 h exposure
# Description: Routine analyses of antimalarial activity against P. falciparum 3D7 was tested by TCGLS (Kolkata, India) using the lactate dehydrogenase (PfLDH) growth inhibition assay as previously described. […] P. falciparum strain (3D7) was obtained from BEI Resources.
# HepG2 cells = experiment: HepG2 72-h viability, CellTiter-Glo; format: cell-based; settings: Homo sapiens, 72 h exposure
# Description: The HepG2 (Human hepatocyte carcinoma) cell line was procured from ATCC (American Type Culture Collection, Manassas, USA; HB-8065) and viability assessed using CellTiter-Glo luminescent cell viability assay reagents (Promega). For the assay, 2,000 cells/well were plated in 384-well plates 24 h prior to the experiment and incubated at 37°C in a CO2 incubator. The medium was removed; and cells were treated with fresh medium containing either vehicle (0.5% DMSO) or serially diluted compounds or doxorubicin (1.3 nM to 25 μM) in a final volume of 50 μL/well and further incubated for 72 h at 37°C in a CO2 incubator. […] Following incubation, 25 μL of medium was discarded and 25 μl of CellTiter-Glo reagent was added to each well and the plate was kept on a plate shaker for 15 min at 25°C with shaking at 300 rpm. Luminescence signals were measured in a PHERAstar FSX reader (BMG LABTECH).
# PfTyrRS [7] = target: T1, PfTyrRS (Plasmodium falciparum, UniProt Q8IAR7); experiment: ATP consumption by PfTyrRS (Kinase Glo); format: biochemical; settings: PfTyrRS 25 nM, ATP 10 μM, tyrosine 200 μM, cognate tRNA^Tyr 4.8 μM, 37°C 1 h; read-out: Inhibition of PfTyrRS (Kinase Glo) IC50
# Description: Consumption of ATP was measured using a luciferase-based assay as per the manufacturer’s instructions (Kinase-Glo Luminescent Kinase Assay, Promega).
# PfTyrRS [8] = target: T1, PfTyrRS; experiment: Differential scanning fluorimetry (DSF) of PfTyrRS; format: binding; settings: for ΔTm at 50 µM: 50 μM sulfamate, tyrosine, PftRNA^Tyr, 37°C 2 h, read-out: PfTyrRS binding (DSF) Delta Tm; for ΔTm at 50 µM / PfTyrRS Tm: ATP; for Kd: estimated from DSF with an irreversible thermal unfolding model, read-out: PfTyrRS binding (DSF) apparent KD; for PfTyrRS Tm: with sulfamate, tyrosine and tRNA, apo 49.9 ± 0.6
# Description: The effect on ML471 and analogues on the thermal stability of TyrRS enzymes was assayed as previously described. […] SYPRO Orange (Sigma-Aldrich; 5,000X concentrate in DMSO) was added to the reaction mixture at a final concentration of 5X. 25 μL of the sample was added into each well of a 96-well qPCR plate (Applied Biosystems). The plate was sealed and analysed using StepOnePlus Real-Time PCR system (Applied Biosystems). The samples were heated from 20°C to 90°C with a 1% continuous gradient. The thermal unfolding curve was plotted as the first derivative curve of the raw fluorescence values. The melting temperature (Tm), defined as the peak of the first derivative curve, was used to assess the thermal stability of protein-ligand complexes.
# [9] = test system: Pf3D7-pfs16-CBG99 gametocytes, immature (stage II/III) and mature (stage V); experiment: Gametocyte killing assay (luciferase); format: cell-based; settings: Plasmodium falciparum, 48 h
# Description: Gametocytogenesis was induced on a tightly synchronised (>97% rings) asexual parasite culture (Pf3D7-pfs16-CBG99 (kind gift from Pietro Alano), 0.5% parasitemia and 6% hematocrit) with a combination of nutrient starvation and a decrease in hematocrit, as previously described. For immature gametocytes (>90% stage II/III), cultures were exposed to 50 mM N-acetyl glucosamine (NAG) on days 1–4 to eliminate residual asexual parasites and harvested at days 5–6. For mature (>95% stage V) gametocytes, NAG treatment occurred from days 3–7 and harvest at day 13. Stage II/III and V gametocyte cultures (2 % gametocytaemia 1.5 % haematocrit, 150 μL/well) were exposed to compounds and incubated at 37°C for 48 h under hypoxic conditions, after which luciferase activity was determined with a non-lysing D-luciferin substrate (1mM in 0.1M citrate buffer, pH 5.5, 100 μL) and bioluminescence was detected with a 2 s integration time with a GloMax-Multi Detection System with Instinct software.
# [10] = test system: P. falciparum liver stage schizont (NF135); experiment: Liver stage schizont assay in primary human hepatocytes (NF135); format: cell-based; settings: Plasmodium falciparum, Hepatocyte, 96 h, four days
# Description: as §2
# [11] = test system: P. falciparum (strain 3D7A); experiment: Parasite Reduction Rate (PRR) estimation; format: cell-based, Plasmodium falciparum; settings: 10 x IC50
# Description: PRR was assessed using a standardized method. P. falciparum (strain 3D7A, MRA-151), contributed by David Walliker, was obtained through BEI Resources, NIAID, NIH. Cultures of parasites (~90% ring stage) were treated with compounds for 120 h, with daily renewal. Samples of parasites were taken at 0, 24, 48, 72, 96 and 120 h. Compounds were washed out and four independent 3-fold serial dilutions were established in 96-well plates, with fresh RBCs and culture medium. After 18 days, and again at 22 days, samples were taken to examine growth using SYBR Green I in an EnVision Multilabel Plate Reader (Perkin Elmer) and analysed using Excel and Grafit 5.0 software. The human biological samples were sourced ethically, and their research use was in accord with the terms of the informed consents under an IRB/EC approved protocol.
# [12] = read-out: Early stage gametocytes IC50
# [13] = read-out: Mature stage gametocytes IC50
# T1 sequence (Q8IAR7 entry or part of it): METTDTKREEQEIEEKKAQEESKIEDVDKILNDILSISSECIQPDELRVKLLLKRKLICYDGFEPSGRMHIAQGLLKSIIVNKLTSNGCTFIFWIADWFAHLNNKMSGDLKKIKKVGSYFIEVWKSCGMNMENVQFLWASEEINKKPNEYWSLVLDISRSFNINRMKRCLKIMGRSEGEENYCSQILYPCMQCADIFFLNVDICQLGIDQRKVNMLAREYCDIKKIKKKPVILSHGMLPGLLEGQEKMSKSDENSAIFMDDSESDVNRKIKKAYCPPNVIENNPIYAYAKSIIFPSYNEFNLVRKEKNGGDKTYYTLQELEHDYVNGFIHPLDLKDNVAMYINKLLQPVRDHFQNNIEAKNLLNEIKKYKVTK
structure (smiles),measurement,setting,value
C[C@@H]1CC[C@H]2[C@@H](C)C(=O)O[C@@H]3O[C@@]4(C)CC[C@@H]1[C@]32OO4 [Artemisinin],Lag phase,[1],0 h
same,Log PRR,[1],> 4.8
same,PCT99.9%,[1],< 24 h
C[C@H]1[C@H](OC(=O)CCC(=O)O)O[C@@H]2O[C@@]3(C)CC[C@H]4[C@H](C)CC[C@@H]1[C@@]24OO3 [Artesunate],EC50,"[2]; Plasmodium falciparum; range over n = 7 isolates; read-out: EC50 range, P. falciparum Brazilian field isolates",0.0008 to 0.0031 µM
same,EC50,"[2]; Plasmodium falciparum; read-out: Median EC50, P. falciparum Brazilian field isolates",0.0022 µM
same,EC50,"[3]; Plasmodium vivax; range over n = 10 isolates; read-out: EC50 range, P. vivax Brazilian field isolates",0.0008 to 0.0035 µM
same,EC50,"[3]; Plasmodium vivax; read-out: Median EC50, P. vivax Brazilian field isolates",0.0017 µM
O=C1C(O)=C([C@H]2CC[C@H](c3ccc(Cl)cc3)CC2)C(=O)c2ccccc21 [Atovaquone],IC50,[4],0.007 ± 0.0039 µM
same,IC50,Primary hepatocytes; host cells of the NF175 experiment,> 1 µM
same,Lag phase,[1],48 h
same,Log PRR,[1],2.9
same,PCT99.9%,[1],90 h
same,Slope,[1],-0.060
"O=C(NCCN1CCCC1)c1cc(-c2ccc(CN3CCOCC3)cc2)nc2ccc(F)cc12 [Cabamiquine, reference compound]",IC50,"[5]; female, read-out: Dual gamete formation assay (female) IC50(48h)",0.0022 ± 0.0001 µM
same,IC50,"[5]; male, read-out: Dual gamete formation assay (male) IC50(48h)",0.0023 ± 0.0004 µM
CCN(CC)CCCC(C)Nc1ccnc2cc(Cl)ccc12 (centres unmarked) [Chloroquine],EC50,"[2]; Plasmodium falciparum, read-out: EC50 range, P. falciparum Brazilian field isolates",0.172 to 0.52 µM
same,EC50,"[2]; Plasmodium falciparum, read-out: Median EC50, P. falciparum Brazilian field isolates",0.286 µM
same,EC50,"[3]; Plasmodium vivax, read-out: EC50 range, P. vivax Brazilian field isolates",0.104 to 0.56 µM
same,EC50,"[3]; Plasmodium vivax, read-out: Median EC50, P. vivax Brazilian field isolates",0.143 µM
same,Lag phase,[1],0 h
same,PCT99.9%,[1],33.8 h
same,Slope,[1],-0.094
CC(=O)c1nn([C@@H]2O[C@H](COS(N)(=O)=O)[C@@H](O)[C@H]2O)c2ncnc(N)c12 [ML111],IC50,[6],0.0043 ± 0.0007 µM
same,IC50,HepG2 cells,> 50 µM
same,IC50,PfTyrRS [7],34 ± 14 µM
same,ΔTm at 50 µM,PfTyrRS [8],15.1 ± 0.2 °C
same,Kd,PfTyrRS [8],0.0007 µM
same,PfTyrRS Tm,PfTyrRS [8],65.0 ± 0.5 °C
Nc1ncnc2c1c(C1CC1)nn2[C@@H]1O[C@H](COS(N)(=O)=O)[C@@H](O)[C@H]1O [ML864],IC50,[6],0.0025 ± 0.0006 µM
same,IC50,HepG2 cells,21.3 µM
same,IC50,PfTyrRS [7],8.5 ± 4.5 µM
same,ΔTm at 50 µM,PfTyrRS [8],17 ± 0.1 °C
same,Kd,PfTyrRS [8],0.0003 µM
same,PfTyrRS Tm,PfTyrRS [8],66.9 ± 0.5 °C
"CS(=O)(=O)c1ccc(-c2cnc(N)c(-c3ccc(C(F)(F)F)nc3)c2)cc1 [MMV390048, reference compound]",IC50,[9]; [12],0.138 ± 0.008 µM
same,IC50,[9]; [13],0.15 ± 0.02 µM
same,IC50,[10],0.0233 ± 0.0133 µM
same,IC50,Primary hepatocytes; host cells of the NF135 experiment,> 0.1 µM
"CN(C)c1ccc2nc3ccc(=[N+](C)C)cc-3sc2c1 [Methylene blue, reference compound]",IC50,[9]; [12],0.062 ± 0.011 µM
same,IC50,[9]; [13],0.353 ± 0.063 µM
"CCc1nc(N)nc(N)c1-c1ccc(Cl)cc1 [Pyrimethamine, reference compound]",Lag phase,[11],24 h
same,Log PRR,[11],3.7
same,PCT99.9%,[11],56 h
same,Slope,[11],-0.078
